Assays:
[1] = Impact of ticagrelor particle size on dissolution; format: physicochemical
Description: In a further example the impact of particle size on solubility was tested. Two different particle size diameters for the ticagrelor active ingredient were screened, 5.5 and 15 micrometers. The pH and osmolality were not affected.

[2] = Bulk hold study, ticagrelor 8 mg/ml in HPβCD 30% w/w, phosphate buffer pH 7.5; format: physicochemical
Description: To investigate the impact of temperature and hold time, a new composition was prepared as per below Table 19. In first step a phosphate buffer at pH 7.5 was prepared and the buffered solution was heated to 40° C.-45° C. HPβCD was added to the buffered solution under continuous mixing. […] It usually took 30 mins to 4 hours depending on batch size. Then this solution was filtered through a 0.22-micron filter and packed in suitable clear or amber colored glass vials.

Enterococcus faecalis = settings: ex-vivo; cited from earlier work
[3] = Maximum solubility of ticagrelor in HPβCD solution without heat; format: physicochemical; settings: without the use of heat
Description: In a further example, the maximum solubility of ticagrelor in an HPβCD solution, without the use of heat, was investigated.

[4] = tested on: Methicillin sensitive Staphylococcus aureus (MSSA); settings: ex-vivo; cited from earlier work
[5] = particle distribution D90 5.5 μm, micronized
[6] = particle distribution D90 15 μm, unmicronized
[7] = bulk hold at 45° C. in glass vials, T = 1 h
[8] = bulk hold at 45° C. in glass vials, T = 110 h
[9] = bulk solution in sealed vials, T = 1 M, 25° C.
[10] = bulk solution in sealed vials, T = 1 M, 40° C.

## CCCSc1nc(N[C@@H]2C[C@H]2c2ccc(F)c(F)c2)c2nnn([C@@H]3C[C@H](OCCO)[C@@H](O)[C@H]3O)c2n1 [ticagrelor, (1S,2S,3R,5S)-3-{7-[(1R,2S)-2-(3,4-difluorophenyl)cyclopropylamino]5-(propylthio)-3H-(1,2,3)triazolo (4,5-D)pyrimidin-3-yl}-5-(2 hydroxyethoxy) cyclopentane-1,2-diol]
[1]; [5]
  Dissolution time: 33 min
  Osmolality: 751 mOsm/kg
  pH: 7.68
[1]; [6]
  Dissolution time: 125 min
  Osmolality: 753 mOsm/kg
  pH: 7.70
[2]; bulk hold at 30° C., T0
  Acetal impurity, average content: 0.04%
  Amine impurity, average content: 0.06%
  Assay ticagrelor: 105.60%
  Regiomer impurity, average content: 0.00%
  Sum impurities >0.05: 0.10%
  Total impurities: 0.21%
  Triol Impurity, average content: 0.05%
[2]; bulk hold at 30° C., T4 W
  Acetal impurity, average content: 0.04%
  Amine impurity, average content: 0.06%
  Assay ticagrelor: 106.14%
  Regiomer impurity, average content: 0.00%
  Sum impurities >0.05: 0.06%
  Total impurities: 0.21%
  Triol Impurity, average content: 0.04%
[2]; [7]
  Acetal impurity, average content: 0.04%
  Amine impurity, average content: 0.05%
  Assay ticagrelor: 107.87%
  Impurity at relative retention time 1.33, average content: 0.07%
  Sum impurities >0.05: 0.12%
  Total impurities: 0.20%
  Triol Impurity, average content: 0.04%
[2]; [8]
  Acetal impurity, average content: 0.04%
  Amine impurity, average content: 0.07%
  Assay ticagrelor: 109.10%
  Impurity at relative retention time 1.33, average content: 0.03%
  Sum impurities >0.05: 0.11%
  Total impurities: 0.28%
  Triol Impurity, average content: 0.05%
[2]; [9]
  Acetal impurity, average content: 0.03%
  Amine impurity, average content: 0.06%
  Assay ticagrelor: 107.22%
  Impurity at relative retention time 1.03, average content: 0.02%
  Impurity at relative retention time 1.33, average content: 0.03%
  Regiomer impurity, average content: 0.03%
  Sum impurities >0.05: 0.06%
  Total impurities: 0.23%
  Triol Impurity, average content: 0.01%
[2]; [10]
  Acetal impurity, average content: 0.00%
  Amine impurity, average content: 0.06%
  Assay ticagrelor: 105.16%
  Impurity at relative retention time 1.03, average content: 0.02%
  Impurity at relative retention time 1.33, average content: 0.08%
  Regiomer impurity, average content: 0.08%
  Sum impurities >0.05: 0.21%
  Total impurities: 0.28%
  Triol Impurity, average content: 0.00%
Enterococcus faecalis
  minimal bactericidal concentration: 40 microgram/ml
[3]; HPβCD 30% w/w
  Ticagrelor (maximum solubility in HPβCD solution): 8 mg/mL
[3]; HPβCD 33% w/w
  Ticagrelor (maximum solubility in HPβCD solution): 9 mg/mL
[4]
  minimal bactericidal concentration: 20 microgram/ml

Source: patent US20260007599A1, “TICAGRELOR IV FORMULATIONS FOR USE IN THE TREATMENT OF GRAM-POSITIVE BACTEREMIA” (Hyloris Developments SA, priority 2023, published 2026)
